Experimental data: patent WO2009110655A1, “Novel beta substituted morita-baylis-hillman derivatives” (FOOD SCIENCE Co Ltd, priority 2008, dated 2009)

What was measured:
[1] = test system: human esophageal cancer cell line HEC4; assay: MTT assay, anticancer effect (cytotoxicity) of β-substituted MBH derivatives; assay type: cell-based
[2] = test system: Human HeLa cell lines; settings: "It is reported"; cited from earlier work
[3] = 2 mg compound in 80 μl DMSO, 1 μl per well, 24 h at 37 °C, undiluted (FIGs. 1 and 2)
[4] = diluted 20-fold, 24 h at 37 °C (FIG. 3)

| Structure (SMILES) | oncolytic activity [1, 3] | viabilities of the cancer cells [1, 4] | other results |
| --- | --- | --- | --- |
| CCCCCCCCCCCC/C=C(\C(=O)OC)C(O)c1ccccc1 (stereo not drawn) [SE-Il, (Z)-methyl-2-(hydroxy(phenyl)methyl)pentadeca-2-enoate] | very high oncolytic activities |  | viabilities of the cancer cells [1, 3]: less than 20% |
| CCCCCCCCCCCCC/C=C(/C(=O)OC)C(O)C(C)=O (stereo not drawn) [SE-3, secokotomolide A] |  | about 50% | DNA damage [2]: apotositic DNA damage; induction of apoptosis [2]: significant induction of apoptosis |
| CCCCCCCCCCCCC/C=C(/C(=O)OC)C(O)c1ccccc1 (stereo not drawn) [SE-5, (E)-methyl-2-(hydroxy(phenyl)methyl)hexateca-2-enoate] |  | about 50% | activity (comparison of diluted samples) ([1]; diluted samples, 20-fold, compared with SE-3 (FIG. 3)): a little higher activity than SE-3 |
| CCCCCCCCCCCCC/C=C(/C(=O)OC)C(O[Si](CC)(CC)CC)C(C)=O (stereo not drawn) [SE-2, (E)-methyl-2-(l-triethylsiloxy-2-oxopropyl)hexadeca-2-enoate] | almost no oncolytic activity |  |  |
| C=C(C)C(O[Si](CC)(CC)CC)/C(=C\CCCCCCCCCCCCC)C(=O)OC (stereo not drawn) [SE-I, (E)-methyl-2-(l-triethylsiloxy-2-methylaryl)hexadeca-2-enoate] | almost no oncolytic activity |  |  |
